Experiment [1] addresses T1, 5-hydroxytryptamine receptor 2C (Rattus norvegicus, UniProt P08909).
T1 sequence (P08909 whole entry): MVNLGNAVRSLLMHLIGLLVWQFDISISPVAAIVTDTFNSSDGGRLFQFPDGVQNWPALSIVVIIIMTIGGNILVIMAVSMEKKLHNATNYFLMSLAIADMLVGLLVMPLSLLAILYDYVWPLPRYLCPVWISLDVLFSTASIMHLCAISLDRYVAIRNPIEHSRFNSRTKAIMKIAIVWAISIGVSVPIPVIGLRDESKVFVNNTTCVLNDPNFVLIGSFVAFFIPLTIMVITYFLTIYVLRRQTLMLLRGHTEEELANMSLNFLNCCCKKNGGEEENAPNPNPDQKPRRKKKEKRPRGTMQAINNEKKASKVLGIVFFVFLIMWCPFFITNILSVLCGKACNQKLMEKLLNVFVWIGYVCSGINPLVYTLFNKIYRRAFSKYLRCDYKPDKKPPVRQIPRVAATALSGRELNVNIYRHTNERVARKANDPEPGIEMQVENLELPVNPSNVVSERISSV
The experiment in a line: Binding affinity against rat 5-hydroxytryptamine 2C receptor using [3H]mesulergine as radioligand.

In experiment [2] the target is T2, 5-hydroxytryptamine receptor 2A (Rattus norvegicus, UniProt P14842). The experiment can be described thus: Binding affinity against rat 5-hydroxytryptamine 2A receptor using [3H]DOB as radioligand.
T2 sequence (P14842 whole entry): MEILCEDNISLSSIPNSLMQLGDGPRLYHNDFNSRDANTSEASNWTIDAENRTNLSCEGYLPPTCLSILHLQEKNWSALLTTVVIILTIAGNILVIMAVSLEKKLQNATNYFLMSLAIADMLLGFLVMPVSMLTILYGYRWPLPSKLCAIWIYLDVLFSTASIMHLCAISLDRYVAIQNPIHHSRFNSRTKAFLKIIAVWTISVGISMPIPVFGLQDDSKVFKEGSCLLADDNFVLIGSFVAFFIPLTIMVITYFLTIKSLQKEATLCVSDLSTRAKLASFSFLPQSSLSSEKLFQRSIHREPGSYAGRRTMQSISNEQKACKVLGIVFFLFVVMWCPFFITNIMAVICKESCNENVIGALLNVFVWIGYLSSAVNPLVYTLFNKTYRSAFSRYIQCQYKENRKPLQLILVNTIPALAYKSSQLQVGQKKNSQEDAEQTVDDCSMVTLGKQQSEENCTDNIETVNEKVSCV
The target of experiment [3] is Serotonin receptor 2a and 2c (5HT2A and 5HT2C) (Rattus norvegicus) (UniProt P08909+P14842). The experiment can be described thus: Ratio of binding affinity towards rat 5-HT2C and 5-HT2A receptors. It counts as protein assay.
Serotonin receptor 2a and 2c (5HT2A and 5HT2C) (Rattus norvegicus), sequence (P14842 whole entry, looked up, one chain of several): as the sequence (P14842 whole entry) above
Experiment [4] has as its target T2, 5-hydroxytryptamine receptor 2A. The experiment can be described thus: Binding affinity against rat 5-hydroxytryptamine 2A receptor using [3H]ketanserin as radioligand.

A value given as a limit tells only on which side of the number the result lay.

With `COc1cc(-c2ccccc2)ccc1CCN`, the figures for the Ki in experiment [1], in experiment [2] and in experiment [4] were 1.52 µM, 4.9 µM and 6.72 µM, respectively. In addition, in experiment [3], the Ratio was < 1.
Consider `COc1cc(Cc2ccccc2)ccc1CCN`, for which the Ki is 0.093 µM in experiment [1] and 0.023 µM in experiment [4]. The Ratio in experiment [3] worked out at 4.
Take `COc1ccc(CCCC2CCCCC2)cc1CCN`: the Ki in experiment [1] is 0.198 µM; in experiment [2], 0.76 µM; in experiment [4], 0.38 µM. Further, the Ratio in experiment [3] is < 1.
As to `COc1cc(CCCc2ccccc2)ccc1CCN`, the inhibition constant Ki in experiment [1] was 0.295 µM; in experiment [2] it was 0.012 µM; in experiment [4], 0.018 µM. In experiment [3], the Ratio is 16.
Regarding `COc1ccccc1CCN`, the Ki in experiment [1], in experiment [2] and in experiment [4] was > 10 µM each time.
As for `COc1ccc(Cc2ccccc2)cc1CCN`, the Ki in experiment [1] was 0.23 µM; in experiment [4], 0.176 µM. The Ratio in experiment [3] was 1.
Consider `COc1ccc(OCCc2ccccc2)cc1CCN`, for which the inhibition constant (Ki) in experiment [1] turned out to be 1.79 µM; in experiment [2] it was 0.44 µM; in experiment [4] it was 0.6 µM. Also, in experiment [3], the Ratio was found to be 3.
For the compound `COc1ccc(OC)c(CCN)c1`, the Ki in experiment [1] is 6.4 µM; in experiment [4], 2.82 µM. Also, the Ratio in experiment [3] turned out to be 2.
Take `COc1ccc(Br)cc1CCN`: the Ki in experiment [1] was 0.96 µM; in experiment [2], 0.208 µM; in experiment [4], 1 µM. Moreover, in experiment [3], the Ratio was found to be 1.
Regarding `COc1ccc(CCCCc2ccccc2)cc1CCN`, the values for the Ki in experiment [1], in experiment [2] and in experiment [4] were 0.071 µM, 0.067 µM and 0.089 µM, respectively. In addition, the Ratio in experiment [3] is 1.
Consider `COc1ccc(CCc2ccccc2)cc1CCN`, for which the results for the Ki in experiment [1] and in experiment [4] were 0.435 µM and 0.24 µM, respectively. Also, in experiment [3], the Ratio worked out at 2.
Regarding `COc1cc(CCc2ccccc2)ccc1CCN`, the Ki in experiment [1] stood at 0.17 µM; in experiment [4] it was 0.046 µM. Also, in experiment [3], the Ratio was 4.
Take `COc1ccc(I)cc1CCN`: the Ki in experiment [1] stood at 1.64 µM; in experiment [2], 0.211 µM; in experiment [4] it was 0.7 µM. In experiment [3], the Ratio is 2.
Turning to `COc1cc(CCCc2ccccc2)ccc1CC(C)N` (configuration not stated), the Ratio in experiment [3] is 11.
Regarding `COc1ccc(CCCc2ccccc2)cc1CCN`, the Ki in experiment [1] worked out at 0.22 µM; in experiment [2], 0.03 µM; in experiment [4], 0.02 µM. For the same compound, in experiment [3], the Ratio is 11.
Take `COc1cc(CCCC2CCCCC2)ccc1CCN`: the Ki in experiment [1] worked out at 0.116 µM; in experiment [2] it was 0.25 µM; in experiment [4], 0.438 µM. The Ratio in experiment [3] was < 1.
For `COc1ccc(OCCc2ccc(Br)cc2)cc1CCN` the same measures were 0.115 µM, 0.035 µM, 0.091 µM and 1.
Turning to `COc1ccc(-c2ccccc2)cc1CCN`, the Ki in experiment [1] is 2.87 µM; in experiment [2], 1.52 µM; in experiment [4], 3.46 µM. In addition, the Ratio in experiment [3] came to 1.
Regarding `COc1cc(OCCc2ccccc2)ccc1CCN`, the results for the Ki in experiment [1], in experiment [2] and in experiment [4] were 0.81 µM, 0.11 µM and 0.172 µM, respectively. In addition, the Ratio in experiment [3] was 5.
For `COc1cc(CCCCc2ccccc2)ccc1CCN`, in that order: 0.068 µM, 0.042 µM, 0.059 µM and 1.
`COc1cc(C#CCCCc2ccccc2)ccc1CCN`: the Ki is 0.07 µM in experiment [1], 0.24 µM in experiment [2] and 0.295 µM in experiment [4]. Besides, in experiment [3], the Ratio is < 1.
For `COc1cc(CCCCCc2ccccc2)ccc1CCN`, in that order: 0.019 µM, 0.018 µM, 0.072 µM and < 1.
With `COc1ccc(OCc2ccccc2)cc1CCN`, the Ki amounted to 0.41 µM in experiment [1], 0.255 µM in experiment [2] and 0.345 µM in experiment [4]. Also, the Ratio in experiment [3] amounted to 1.
With `COc1ccc(CCCCCc2ccccc2)cc1CCN`, the values for the Ki in experiment [1] and in experiment [4] were 0.15 µM and 0.11 µM, respectively. Besides, the Ratio in experiment [3] was 1.
On to `COc1ccc(CCCc2ccccc2)cc1CC(C)N` (configuration not stated), for which the Ki in experiment [1] turned out to be 0.11 µM; in experiment [2] it was 0.019 µM; in experiment [4], 0.013 µM. Moreover, the Ratio in experiment [3] came out at 8.
In the case of `COc1ccc(C#CCCCc2ccccc2)cc1CCN`, the Ki is 0.205 µM in experiment [1] and 0.295 µM in experiment [4]. Besides, in experiment [3], the Ratio was < 1.
As to `COc1ccc(O)cc1CCN`, the inhibition constant Ki in experiment [1] amounted to 4.86 µM; in experiment [2], 1.33 µM; in experiment [4], 5.96 µM. Also, the Ratio in experiment [3] turned out to be 1.

As a reminder, the Ki is a measure of affinity in units of concentration, obtained from inhibition or displacement. Low values mean higher affinity, high ones lower affinity.
